Data from US6716987B1, “Derivatives of benzofuran or benzodioxazole compounds” (Kyowa Hakko Kogyo Co., Ltd., priority 1995, dated 2004).
Counter-ions that a name gives are not always drawn.

System: cAMP-specific phosphodiesterase (PDE IV)
Assay: Inhibition of the PDE IV enzyme derived from a dog trachea
Format: biochemical
Conditions: test compound 10^−6 M; PDE IV from dog tracheal smooth muscle; substrate cAMP 1 μM
Experimental: cAMP-specific phosphodiesterase (PDE IV) was purified from a dog tracheal smooth muscle according to the method of Torphy et al. [Molecular Pharmacol., 37, 206-214 (1990)]. The PDE activity was measured by the following two steps according to the method of Kincaid and Manganiello et al. [Method in Enzymology (J. D. Corbin and R. A. Jonson, Eds.), 199, 457-470 (1988)]. Using [^3]cAMP (at a final concentration of 1 μM) as a substrate, the reaction was carried out in a standard mixture containing N,N-bis(2-hydroxyethyl)-2-aminoethanesulfonic acid (50 mM, pH=7.2), MgCl2 (1 mM), and soybean trypsin inhibitor (0.1 mg/ml). The reaction was initiated by adding the enzyme, followed by incubation at 30° C. for 10 to 30 minutes. After stopping the reaction with hydrochloric acid, the generated […] was completely converted to adenosine by 5′-nucleotidase.
The resultant was subjected to chromatography on DEAE-Sephadex A-25, and radio activity of the eluted [^3H] adenosine was counted using a scintillation counter. Each of the test drugs was dissolved in DMSO (final concentration 1.7%) and then added to the mixture.

SMILES	Enzyme Inhibitory Activity (%, 10^−6 M)
CCOC(=O)CC1COc2c(OC)ccc(C(=O)Nc3ccncc3)c21 (racemic) [Compound 6, (±)-3-Ethoxycarbonylmethyl-7-methoxy-4-pyridylaminocarbonyl-2,3-dihydrobenzofuran]	66%
COc1ccc(C(=O)Nc2c(Cl)cncc2Cl)c2c1OCC2CC(=O)N1CCN(C)CC1.Cl (racemic) [Compound 17, (±)-4-[(3,5-Dichloro-4-pyridyl)aminocarbonyl]-7-methoxy-3-[(4-methylpiperazin-1-yl)carbonylmethyl]-2,3-dihydro-benzofuran.hydrochloride]	63%
COc1ccc(C(=O)Nc2c(Cl)cncc2Cl)c2c1OCC2CC(=O)Nc1cccnc1 (racemic) [Compound 19, (±)-4-[(3,5-Dichloro-4-pyridyl)aminocarbonyl]-7-methoxy-3-[(3-pyridyl)aminocarbonyl]methyl-2,3-dihydro-benzofuran]	87%
COc1ccc(C(=O)Nc2c(Cl)cncc2Cl)c2c1OCC2CC(=O)Nc1ncccn1 (racemic) [Compound 20, (±)-4-[(3,5-Dichloro-4-pyridyl)aminocarbonyl]-7-methoxy-3-[(2-pyrimidyl)aminocarbonyl]methyl-2,3-dihydro-benzofuran]	80%
COc1ccc(C(=O)Nc2c(Cl)cncc2Cl)c2c1OCC2CC(=O)N1CCc2ccccc2C1 (racemic) [Compound 22, (±)-4-[(3,5-Dichloro-4-pyridyl)aminocarbonyl]-7-methoxy-3-[(1,2,3,4-tetrahydroisoquinolinyl)carbonyl]-methyl-2,3-dihydrobenzofuran]	85%
COc1ccc(C(=O)Nc2c(Cl)cncc2Cl)c2c1OCC2CC(=O)NCc1ccccn1 (racemic) [Compound 24, (±)-4-[(3,5-Dichloro-4-pyridyl)aminocarbonyl]-7-methoxy-3-[(2-pyridylmethyl)aminocarbonyl]methyl-2,3-dihydrobenzofuran]	80%
COc1ccc(C(=O)Nc2c(Cl)cncc2Cl)c2c1OCC2CC(=O)NCc1ccncc1 (racemic) [Compound 26, (±)-4-[(3,5-Dichloro-4-pyridyl)aminocarbonyl]-7-methoxy-3-[(4-pyridylmethyl)aminocarbonyl]methyl-2,3-dihydrobenzofuran]	79%
COc1ccc(C(Sc2ccncc2)c2ccccc2)c2c1OC(C)(C)C2 (racemic) [Compound 49, (±)-7-Methoxy-2,2-dimethyl-4-[1-phenyl-1-(4-pyridylthio)methyl]-2,3-dihydrobenzofuran]	40%
COc1ccc(C(Cc2c(Cl)cncc2Cl)OC)c2c1OC(C)(C)C2 (racemic) [Compound 62, (±)-4-[2-(3,5-Dichloro-4-pyridyl)-1-methoxyethyl]-7-methoxy-2,2-dimethyl-2,3-dihydrobenzofuran]	63%
COc1ccc(C(C#N)Cc2ccncc2)c2c1OC1(CCCC1)C2.Cl (racemic) [Compound 64, (±)-4-[1-Cyano-2-(4-pyridyl)ethyl]-7-methoxy-spiro[2,3-dihydrobenzofuran-2,1′-cyclopentane].hydrochloride]	78%
COc1ccc(C(C)(C#N)Cc2ccncc2)c2c1OC1(CCCC1)C2.Cl (racemic) [Compound 65, (±)-4-[1-Cyano-1-methyl-2-(4-pyridyl)ethyl]-7-methoxy-spiro[2,3-dihydrobenzofuran-2,1′-cyclopentane].hydrochloride]	74%
COc1ccc(C(Cc2ccncc2)c2ccccc2)c2cc(-c3ccncc3)oc12.Cl (racemic) [Compound 66, (±)-7-Methoxy-4-[1-phenyl-2-(4-pyridyl)ethyl]-2-(4-pyridyl)benzofuran.hydrochloride]	49%

System: not given
Assay: not given
Conditions: not given

SMILES	melting point
COc1ccc(C(=O)Nc2c(Cl)cncc2Cl)c2c1OCC2	196 to 197 °C
COc1ccc(C(=O)Cc2c(Cl)cncc2Cl)c2cc(C#N)oc12	197 to 199 °C
CCOC(=O)Cc1coc2c(OC)ccc(C(=O)Cc3c(Cl)cncc3Cl)c12	105 to 115 °C
CCOC(=O)Cc1coc2c(OC)ccc(C(=O)Cc3ccncc3)c12	111 to 117 °C
COc1ccc(C(=O)Nc2c(Cl)cncc2Cl)c2c1CC1(CCCC1)O2	156 to 158 °C
COc1ccc(C(=O)Nc2ccncc2)c2c1CC1(CCCC1)O2.CS(=O)(=O)O	164 °C (dec.)
COc1ccc(C(=O)Cc2ccncc2)c2c1CC1(CCCC1)O2	101 to 103 °C
COC(=O)c1ccc(-c2ccc(OC)c3c2CC(C)(C)O3)cc1	116 to 122 °C
COc1ccc(-c2ccc(C(=O)O)cc2)c2c1OC(C)(C)C2	249 to 252 °C
COC(=O)c1cccc(-c2ccc(OC)c3c2CC(C)(C)O3)c1	89 to 91 °C
COc1ccc(-c2cccc(C(=O)O)c2)c2c1OC(C)(C)C2	220 to 225 °C
COc1ccc(C(=O)Nc2c(F)cccc2F)c2c(CC(=O)OCc3ccccc3)coc12	223 to 224 °C
COc1ccc(C(=O)Nc2c(C)cccc2C)c2c(CC(=O)OCc3ccccc3)coc12	202 to 204 °C
COc1ccc(C(=O)Cc2c(Cl)cncc2Cl)c2c(CC(=O)O)coc12	192 to 194 °C
COc1ccc(C(=O)Cc2c(Cl)cncc2Cl)c2c(CC(=O)OCc3ccccc3)coc12	132 to 133 °C
CCOC(=O)Cc1coc2c(OC)ccc(C(=O)Cc3c(Cl)cccc3Cl)c12	153 to 154 °C
COc1ccc(C(=O)Cc2c(Cl)cccc2Cl)c2cc(C(=O)N(C)c3cccc(F)c3)oc12	198 to 199 °C
COc1ccc(C(=O)Cc2c(Cl)cncc2Cl)c2cc(C(=O)c3ccccc3)oc12	213 to 215 °C
COc1ccc(C(=O)Nc2cccc(C(=O)O)c2)c2cc(C(=O)c3ccccc3)oc12	262 to 263 °C
COc1ccc(C(=O)Cc2c(Cl)cncc2Cl)c2c1OCC2CC(=O)OCc1ccccc1 (centres unmarked)	120 to 122 °C
COc1ccc(C(=O)Cc2c(Cl)cncc2Cl)c2c1OCO2	170 to 171 °C
COc1ccc(C(=O)Cc2c(Cl)cncc2Cl)c2c1OC(C)(C)O2	133 to 134 °C
COc1ccc(C(=O)Cc2c(Cl)cncc2Cl)c2c1OC(c1ccccc1)(c1ccccc1)O2	156 to 157 °C
COc1ccc(C(=O)Cc2c(Cl)cncc2Cl)c2c1OCCO2	158 to 160 °C
COc1ccc(C(=O)Cc2ccncc2)c2c1OCCO2.Cl	226 to 228 °C

SMILES	melting point
COc1ccc(C(=O)Cc2c(Cl)cccc2Cl)c2c1OCCO2	154 to 155 °C
COc1ccc(C(=O)Nc2c(Cl)cncc2Cl)c2c1OCCO2	143 to 145 °C
COc1ccc(C(=O)Nc2c(Cl)cccc2Cl)c2c1OCCO2	176 to 177 °C
CCOC(=O)c1cccc(NC(=O)c2ccc(OC)c3c2OCCO3)c1	174 to 175 °C
COc1ccc(C(=O)Nc2cccc(C(=O)O)c2)c2c1OCCO2	283 to 284 °C
CCOC(=O)c1ccc(-c2ccc(OC)c3c2OCCO3)cc1	141 to 141.5 °C
COc1ccc(-c2ccc(C(=O)O)cc2)c2c1OCCO2	281 to 284 °C
COc1ccc(C(=O)Cc2ccncc2)c2c1OCCCO2.Cl	205 to 208 °C
COc1ccc(CCc2ccncc2)c2c1OCCCO2.Cl	185 to 187 °C
COc1ccc(C(=O)Nc2c(Cl)cncc2Cl)c2c1OCCCO2	149 to 150 °C
COc1ccc(C(=O)Nc2c(Cl)cncc2Cl)c2c1OCCCCO2	115 to 117 °C
COc1ccc(C(=O)Nc2ccncc2)c2c1OC(C)(C)O2	180 to 181 °C
CCN1CCN(C(=O)c2cc3c(C(=O)Cc4c(Cl)cncc4Cl)ccc(OC)c3o2)CC1.O=C(O)/C=C/C(=O)O	196 to 197 °C
COc1ccc(C(=O)Nc2c(Cl)cncc2Cl)c2cc(Cc3ccccc3)oc12	141 to 142 °C
COc1ccc(/C=C/c2c(Cl)cncc2Cl)c2c1OC(C)(C)C2	114 to 118 °C
COc1ccc(C(C)=Cc2ccncc2)c2c1OC(C)(C)C2	85 to 87 °C
COc1ccc(/C=C/c2c(Cl)cncc2Cl)c2cc(-c3ccncc3)oc12	204 to 206 °C
COc1ccc(C=C(C#N)C#N)c2c1OC(C)(C)C2	198 to 200 °C
COc1ccc(/C=C/C(=O)Nc2ccncc2)c2c1OC1(CCCC1)C2	124 to 128 °C
COc1ccc(C(=O)Cc2c(Cl)cncc2Cl)c2c1OC(C)(C)C2	127 to 131 °C
COc1ccc(C(=O)Cc2ccncc2)c2c1OC(C)(C)C2	107 to 111 °C
COc1ccc(C(C)=Cc2ccncc2)c2c1OC1(CCCC1)C2 (as salt: salt) [Compound 75, 7-Methoxy-4-[1-methyl-2-(4-pyridyl)ethenyl]-spiro[2,3-dihydrobenzofuran-2,1′-cyclopentane]]	85 to 87 °C
COc1ccc(CNc2ccncc2)c2c1OCC2C (racemic)	138 to 145 °C
COc1ccc(/C=C/c2c(Cl)cncc2Cl)c2c1OCC2C (racemic)	117 to 118 °C
COC1(OC)CC=C(C(Cc2ccncc2)c2ccccc2)C2=C1OC(C)(C)C2 (racemic) [Compound 47, (±) 7-Methoxy-2,2-dimethyl-7-methoxy-4-[1-phenyl-2-(4-pyridyl)ethyl]-2,3-dihydrobenzofuran]	78 to 81 °C
